From patent US20260028354A1, “TETRAHYDRONAPHTHALENE DERIVATIVES AS ESTROGEN RECEPTOR DEGRADERS” (REGENT OF THE UNIVERSITY OF MICHIGAN, priority 2022, published 2026)

Experiment: Western blot analysis for "B" compounds
Type: cell-based
Conditions: read-out: Traditional Western Degradation Potency (DC50)
Method in brief: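 Target protein levels given as relative mean band intensity over GAPDH from scanned immunoblots. Lysates of treated cells in RIPA buffer, equalized by BCA, separated on 10% gels and transferred to PVDF.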

Compared with `O=C1CCC(N2C(=O)c3cc4c(cc3C2=O)CCN(CC(=O)N2CC3(CCN(c5ccc([C@@H]6c7ccc(O)cc7CC[C@@H]6c6ccc(F)cc6)cc5)CC3)C2)CC4)C(=O)N1` (stereo partly drawn) [Compound B53, 2-(2,6-dioxopiperidin-3-yl)-7-(2-(7-(4-((1R,2S)-2-(4-fluorophenyl)-6-hydroxy-1,2,3,4-tetrahydronaphthalen-1-yl)phenyl)-2,7-diazaspiro[3.5]nonan-2-yl)-2-oxoethyl)-6,7,8,9-tetrahydroazepino[4,5-f]isoindole-1,3(2H,5H)-dione], `O=C1CCC(N2C(=O)c3cc4c(cc3C2=O)CN(CC(=O)N2CCC3(CC2)CCN(c2ccc([C@@H]5c6ccc(O)cc6CC[C@@H]5c5ccc(F)cc5)cc2)C3)C4)C(=O)N1` (stereo partly drawn) [Compound B55, 2-(2,6-dioxopiperidin-3-yl)-6-(2-(2-(4-((1R,2S)-2-(4-fluorophenyl)-6-hydroxy-1,2,3,4-tetrahydronaphthalen-1-yl)phenyl)-2,8-diazaspiro[4.5]decan-8-yl)-2-oxoethyl)-6,7-dihydropyrrolo[3,4-f]isoindole-1,3(2H,5H)-dione] is lower in DC50: over 100 nM for the first, 10 to 100 nM for the second.

`O=C1CCC(N2C(=O)c3cc4c(cc3C2=O)CN(CC(=O)N2CCC3(CC2)CCN(c2ccc([C@@H]5c6ccc(O)cc6CC[C@@H]5c5ccc(F)cc5)cn2)CC3)C4)C(=O)N1` (stereo partly drawn) [Compound B54, 2-(2,6-dioxopiperidin-3-yl)-6-(2-(9-(5-((1S,2S)-2-(4-fluorophenyl)-6-hydroxy-1,2,3,4-tetrahydronaphthalen-1-yl)pyridin-2-yl)-3,9-diazaspiro[5.5]undecan-3-yl)-2-oxoethyl)-6,7-dihydropyrrolo[3,4-f]isoindole-1,3(2H,5H)-dione] and `O=C1CCC(N2C(=O)c3cc4c(cc3C2=O)CN(CC(=O)N2CCC(Oc3ccc([C@@H]5c6ccc(O)cc6CC[C@@H]5c5ccccc5)cc3)CC2)C4)C(=O)N1` (stereo partly drawn) [Compound B60, 2-(2,6-dioxopiperidin-3-yl)-6-(2-(4-(4-((1R,2S)-6-hydroxy-2-phenyl-1,2,3,4-tetrahydronaphthalen-1-yl)phenoxy)piperidin-1-yl)-2-oxoethyl)-6,7-dihydropyrrolo[3,4-f]isoindole-1,3(2H,5H)-dione] cannot be ordered by DC50: over 100 nM for the first, over 100 nM for the second.

`O=C1CCC(N2C(=O)c3cc4c(cc3C2=O)CN(CC(=O)N2CCC(n3cc(-c5ccc([C@@H]6c7ccc(O)cc7CC[C@@H]6c6ccccc6)cc5)cn3)CC2)C4)C(=O)N1` (stereo partly drawn) [Compound B58, 2-(2,6-dioxopiperidin-3-yl)-6-(2-(4-(4-(4-((1R,2S)-6-hydroxy-2-phenyl-1,2,3,4-tetrahydronaphthalen-1-yl)phenyl)-1H-pyrazol-1-yl)piperidin-1-yl)-2-oxoethyl)-6,7-dihydropyrrolo[3,4-f]isoindole-1,3(2H,5H)-dione] and `O=C1CCC(N2C(=O)c3cc4c(cc3C2=O)CN(CC(=O)N2CC(n3cc(-c5ccc([C@@H]6c7ccc(O)cc7CC[C@@H]6c6ccccc6)cc5)cn3)C2)C4)C(=O)N1` (stereo partly drawn) [Compound B59, 2-(2,6-dioxopiperidin-3-yl)-6-(2-(3-(4-(4-((1R,2S)-6-hydroxy-2-phenyl-1,2,3,4-tetrahydronaphthalen-1-yl)phenyl)-1H-pyrazol-1-yl)azetidin-1-yl)-2-oxoethyl)-6,7-dihydropyrrolo[3,4-f]isoindole-1,3(2H,5H)-dione] cannot be ordered by DC50: over 100 nM for the first, over 100 nM for the second.

First: O=C1CCC(N2C(=O)c3cc4c(cc3C2=O)CN(C2CCN(CC3CN(c5ccc([C@@H]6c7ccc(O)cc7CC[C@@H]6c6ccccc6)cc5)C3)CC2)C4)C(=O)N1 (stereo partly drawn) [Compound B61, 2-(2,6-dioxopiperidin-3-yl)-6-(1-((1-(4-((1R,2S)-6-hydroxy-2-phenyl-1,2,3,4-tetrahydronaphthalen-1-yl)phenyl)azetidin-3-yl)methyl)piperidin-4-yl)-6,7-dihydropyrrolo[3,4-f]isoindole-1,3(2H,5H)-dione]
Second: O=C1CCC(N2C(=O)c3cc4c(cc3C2=O)CN(C2CN(CC3CCN(c5ccc([C@@H]6c7ccc(O)cc7CC[C@@H]6c6ccccc6)cc5)CC3)C2)C4)C(=O)N1 (stereo partly drawn) [Compound B65, 2-(2,6-dioxopiperidin-3-yl)-6-(1-((1-(4-((1R,2S)-6-hydroxy-2-phenyl-1,2,3,4-tetrahydronaphthalen-1-yl)phenyl)piperidin-4-yl)methyl)azetidin-3-yl)-6,7-dihydropyrrolo[3,4-f]isoindole-1,3(2H,5H)-dione]
The DC50 of the first is lower: under 10 nM for the first, over 100 nM for the second.

Compared with `O=C1CCC(N2C(=O)c3cc4c(cc3C2=O)CN(CC2CCN(CC3CN(c5ccc([C@@H]6c7ccc(O)cc7CC[C@@H]6c6ccccc6)cc5)C3)CC2)C4)C(=O)N1` (stereo partly drawn) [Compound B62, 2-(2,6-dioxopiperidin-3-yl)-6-((1-((1-(4-((1R,2S)-6-hydroxy-2-phenyl-1,2,3,4-tetrahydronaphthalen-1-yl)phenyl)azetidin-3-yl)methyl)piperidin-4-yl)methyl)-6,7-dihydropyrrolo[3,4-f]isoindole-1,3(2H,5H)-dione], `O=C1CCC(N2C(=O)c3cc4c(cc3C2=O)CN(CC2CCN(CC3CN(c5ccc([C@@H]6c7ccc(O)cc7CC[C@@H]6c6ccc(F)cc6)cc5)C3)CC2)C4)C(=O)N1` (stereo partly drawn) [Compound B70, 2-(2,6-dioxopiperidin-3-yl)-6-((1-((1-(4-((1R,2S)-2-(4-fluorophenyl)-6-hydroxy-1,2,3,4-tetrahydronaphthalen-1-yl)phenyl)azetidin-3-yl)methyl)piperidin-4-yl)methyl)-6,7-dihydropyrrolo[3,4-f]isoindole-1,3(2H,5H)-dione] is higher in DC50: 10 to 100 nM for the first, over 100 nM for the second.

`O=C1CCC(N2C(=O)c3cc4c(cc3C2=O)CN(CC2(F)CCN(CC3CN(c5ccc([C@@H]6c7ccc(O)cc7CC[C@@H]6c6ccccc6)cc5)C3)CC2)C4)C(=O)N1` (stereo partly drawn) [Compound B63, 2-(2,6-dioxopiperidin-3-yl)-6-((4-fluoro-1-((1-(4-((1R,2S)-6-hydroxy-2-phenyl-1,2,3,4-tetrahydronaphthalen-1-yl)phenyl)azetidin-3-yl)methyl)piperidin-4-yl)methyl)-6,7-dihydropyrrolo[3,4-f]isoindole-1,3(2H,5H)-dione] and `O=C1CCC(N2C(=O)c3cc4c(cc3C2=O)CN(CC2CCN(CC3(F)CN(c5ccc([C@@H]6c7ccc(O)cc7CC[C@@H]6c6ccccc6)cc5)C3)CC2)C4)C(=O)N1` (stereo partly drawn) [Compound B74, 2-(2,6-dioxopiperidin-3-yl)-6-((1-((3-fluoro-1-(4-((1R,2S)-6-hydroxy-2-phenyl-1,2,3,4-tetrahydronaphthalen-1-yl)phenyl)azetidin-3-yl)methyl)piperidin-4-yl)methyl)-6,7-dihydropyrrolo[3,4-f]isoindole-1,3(2H,5H)-dione] cannot be ordered by DC50: over 100 nM for the first, over 100 nM for the second.

First: O=C1CCC(N2C(=O)c3cc4c(cc3C2=O)CN(C2CCN(CC3CCN(c5ccc([C@@H]6c7ccc(O)cc7CC[C@@H]6c6ccc(F)cc6)cc5)CC3)CC2)C4)C(=O)N1 (stereo partly drawn) [Compound B66, 2-(2,6-dioxopiperidin-3-yl)-6-(1-((1-(4-((1R,2S)-2-(4-fluorophenyl)-6-hydroxy-1,2,3,4-tetrahydronaphthalen-1-yl)phenyl)piperidin-4-yl)methyl)piperidin-4-yl)-6,7-dihydropyrrolo[3,4-f]isoindole-1,3(2H,5H)-dione]
Second: O=C1CCC(N2C(=O)c3cc4c(cc3C2=O)CN(C2CCN(CC3CN(c5ccc([C@@H]6c7ccc(O)cc7CC[C@@H]6c6ccc(F)cc6)cc5)C3)CC2)C4)C(=O)N1 (stereo partly drawn) [Compound B69, 2-(2,6-dioxopiperidin-3-yl)-6-(1-((1-(4-((1R,2S)-2-(4-fluorophenyl)-6-hydroxy-1,2,3,4-tetrahydronaphthalen-1-yl)phenyl)azetidin-3-yl)methyl)piperidin-4-yl)-6,7-dihydropyrrolo[3,4-f]isoindole-1,3(2H,5H)-dione]
The DC50 of the first is lower: 10 to 100 nM for the first, over 100 nM for the second.

`O=C1CCC(N2C(=O)c3cc4c(cc3C2=O)CN(CC2CN(CC3CCN(c5ccc([C@@H]6c7ccc(O)cc7CC[C@@H]6c6ccc(F)cc6)cc5)CC3)C2)C4)C(=O)N1` (stereo partly drawn) [Compound B67, 2-(2,6-dioxopiperidin-3-yl)-6-((1-((1-(4-((1R,2S)-2-(4-fluorophenyl)-6-hydroxy-1,2,3,4-tetrahydronaphthalen-1-yl)phenyl)piperidin-4-yl)methyl)azetidin-3-yl)methyl)-6,7-dihydropyrrolo[3,4-f]isoindole-1,3(2H,5H)-dione] and `O=C1CCC(N2C(=O)c3cc4c(cc3C2=O)CN(CC2CN(CC3CN(c5ccc([C@@H]6c7ccc(O)cc7CC[C@@H]6c6ccc(F)cc6)cc5)C3)C2)C4)C(=O)N1` (stereo partly drawn) [Compound B71, 2-(2,6-dioxopiperidin-3-yl)-6-((1-((1-(4-((1R,2S)-2-(4-fluorophenyl)-6-hydroxy-1,2,3,4-tetrahydronaphthalen-1-yl)phenyl)azetidin-3-yl)methyl)azetidin-3-yl)methyl)-6,7-dihydropyrrolo[3,4-f]isoindole-1,3(2H,5H)-dione] cannot be ordered by DC50: over 100 nM for the first, over 100 nM for the second.

First: O=C1CCC(N2Cc3cc4c(cc3C2=O)CN(C2CCN(CC3CCN(c5ccc([C@@H]6c7ccc(O)cc7CC[C@@H]6c6ccc(F)cc6)cc5)CC3)CC2)C4)C(=O)N1 (stereo partly drawn) [Compound B68, 3-(6-(1-((1-(4-((1R,2S)-2-(4-fluorophenyl)-6-hydroxy-1,2,3,4-tetrahydronaphthalen-1-yl)phenyl)piperidin-4-yl)methyl)piperidin-4-yl)-1-oxo-3,5,6,7-tetrahydropyrrolo[3,4-f]isoindol-2(1H)-yl)piperidine-2,6-dione]
Second: O=C1CCC(N2Cc3cc4c(cc3C2=O)CN(C2CCN(CC3CN(c5ccc([C@@H]6c7ccc(O)cc7CC[C@@H]6c6ccc(F)cc6)cc5)C3)CC2)C4)C(=O)N1 (stereo partly drawn) [Compound B72, 3-(6-(1-((1-(4-((1R,2S)-2-(4-fluorophenyl)-6-hydroxy-1,2,3,4-tetrahydronaphthalen-1-yl)phenyl)azetidin-3-yl)methyl)piperidin-4-yl)-1-oxo-3,5,6,7-tetrahydropyrrolo[3,4-f]isoindol-2(1H)-yl)pipcridinc-2,6-dionc]
The DC50 of the first is lower: under 10 nM for the first, 10 to 100 nM for the second.

Work on `O=C1CCC(N2C(=O)c3cc4c(cc3C2=O)CN(C2CCN(CC3(F)CN(c5ccc([C@@H]6c7ccc(O)cc7CC[C@@H]6c6ccccc6)cc5)C3)CC2)C4)C(=O)N1` (stereo partly drawn) [Compound B73, 2-(2,6-dioxopiperidin-3-yl)-6-(1-((3-fluoro-1-(4-((1R,2S)-6-hydroxy-2-phenyl-1,2,3,4-tetrahydronaphthalen-1-yl)phenyl)azetidin-3-yl)methyl)piperidin-4-yl)-6,7-dihydropyrrolo[3,4-f]isoindole-1,3(2H,5H)-dione] yielded a DC50 of over 100 nM.
